The subject of assay [1] is p70S6K. The assay is described as follows: IHC staining of phospho-p70S6K in resected xenograft tumor tissue. It is filed as in vivo, human. How it is done: At the completion of the treatment course, xenografted tissues were harvested and fixed in formalin for 24 hrs. The fixed tissues were paraffin-embedded and cut in 0.5 micron sections onto positively-charged glass slides for immunohistochemical (IHC) labeling. Analysis was performed to determine the IHC pharmacodynamic effects of the drug in the targeted pathway. For IHC staining, slides were deparaffinized and rehydrated in graded concentrations of alcohol by standard techniques before antigen retrieval in citrate buffer pH 6.0 for 20 minutes. Next, the slides were cooled for 20 minutes before washing in 1× TBST (Dako Corp. Carpinteria, Calif.). All staining was performed using a DAKO Autostainer at room temperature. Slides were incubated in 3% H2O2 for 10 minutes, followed by the appropriate dilution of primary antibody for 60 minutes. Tris-HCl (0.2M, pH 7.5) (Quality Biological, Inc, Gaithersburg, Md.) was used as the antibody diluent solution. Dilutions of antibodies used were as follows: Total ERK1/2 (Cell Signaling Technology, Beverly, Mass.) 1:25, p-ERK1/2 (Thr202/Tyr204) (Cell Signaling Technology, Beverly, Mass.) 1:50, p70S6K (Santa Cruz Biotechnology) 1:50, and pp70S6K (Cell Signaling Technology, Beverly, Mass.) 1:50. […]

In assay [2] the test system is S6 ribosomal protein. The assay is described as follows: In vivo tumor FNAB Western blot, S6 ribosomal protein phosphorylation (Example 5). As to conditions: tumor samples of treated animals compared to control. How it is done: Fine needle aspiration yielded up to 200 μg of total protein as determined using the BCA protein assay (Pierce) and bovine serum albumin as a standard. Protein extracts (15 μg) were added to a loading buffer boiled and electrophoresed on a 7 or 10% (w/v) polyacrylamide gel in the presence of SDS. Molecular weights of the immunoreactive proteins were estimated based upon the relative migration with colored molecular weight protein markers (Amersham Pharmacia Biotech). After electrotransfer to Immobilon-P membranes (Millipore), membranes were blocked at room temperature using SuperBlock (Pierce,#37516) for one hour. The primary antibodies were diluted at 1:1000 in 1:10 dilution of SuperBlock solution and the membranes were incubated with primary antibodies overnight at 4° C. Next day, the membranes were washed and incubated for 1 h at room temperature with horseradish peroxidase (HRP)-conjugated secondary antibodies, rabbit IgG-HRP (SC-2004), or mouse IgG-HRP (SC-2005) from Santa Cruz Biotechnology at a final dilution of 1:3000. After washing three times with Tris-buffered saline antibody binding was visualized using enhanced chemiluminescence (SuperSignal West Pico, Pierce) and autoradiography.
The expression levels and the phosphorylation status of EGFR, ERK1/2 and S6 ribosomal protein were determined on Western blot analysis.
In general terms: Immunoblotting shows a protein as a band on a membrane.

As for `CO[C@H]1C[C@@H]2CC[C@@H](C)[C@@](O)(O2)C(=O)C(=O)N2CCCC[C@H]2C(=O)O[C@H]([C@H](C)C[C@@H]2CC[C@@H](OC(=O)C(C)(CO)CO)[C@H](OC)C2)CC(=O)[C@H](C)/C=C(\C)[C@@H](O)[C@@H](OC)C(=O)[C@H](C)C[C@H](C)/C=C/C=C/C=C/1C` [temsirolimus, Temsirolimus], the “IHC staining for phosphorylated p70S6K” value in assay [1] (tumor A194, in vivo treated with temsirolimus) is recorded as “no effect”; in assay [1] (tumor A198, in vivo treated with temsirolimus) it was “strongly decreased staining”. Moreover, the “S6 ribosomal protein phosphorylation in vivo” value in assay [2] is “effectively blocked S6 ribosomal protein phosphorylation”.
